{
  "source": "paper PMC11879692",
  "about": "“PDE4 inhibitor rolipram represses hedgehog signaling via ubiquitin-mediated proteolysis of GLI transcription factors to regress breast cancer” (The Journal of Biological Chemistry, 2025)",
  "key": {"MCF-7 cells [1]": {"tested_on": "MCF-7 cells", "test": "Western blot analysis of protein expression", "assay_type": "cell-based, human", "experimental": "(§1) After treatment of cells with rolipram, proteins were extracted from cells by lysing the cells with radioimmunoprecipitation assay buffer, comprising of 150 mM NaCl, 1% Triton X-100, 0.5% sodium deoxycholate, and 0.1% SDS. Equal amount of proteins (40 μg) were resolved using SDS-PAGE before transferring onto nitrocellulose membrane (Immobilon-NC Transfer Membrane; Merck Millipore; catalog no.: HATF00010). The membranes were then incubated overnight with primary antibody at a dilution of 1:1000 at 4°C followed by incubation with secondary antibodies at a dilution of 1:5000 for 2 h at room temperature. Immune detection was performed using femtoLUCENT PLUS-HRP (G-Biosciences; catalog no.: 786-003), and the image was obtained from the Bio-Rad ChemiDoc XRS+ system. Analysis of protein expression was carried out using Bio-Rad Image Lab software (RRID: SCR_014210) and National Institutes of Health ImageJ software ([34]) (RRID: SCR_003070). All protein expressions were normalized against β-tubulin (loading control)."}, "MDA-MB-231 cells [2]": {"tested_on": "MDA-MB-231 cells", "test": "Western blot analysis of protein expression", "assay_type": "cell-based, human", "experimental": "as §1"}, "MCF-7 cells [3]": {"tested_on": "MCF-7 cells", "test": "Wound healing assay", "assay_type": "cell-based, human", "experimental": "(§2) Cells were seeded and allowed to attain a 2D monolayer of cells. […] The percentage of open area was evaluated using Tscratch software (CSElab, Koumoutsakos group at ETH Zurich, https://github.com/cselab/TScratch) (RRID: SCR_014282)."}, "MDA-MB-231 cells [4]": {"tested_on": "MDA-MB-231 cells", "test": "Wound healing assay", "assay_type": "cell-based, human", "experimental": "as §2"}, "[5]": {"test": "Serum biochemical parameters (kidney and liver function) of tumor-induced mice", "assay_type": "in vivo, BALB/c mice", "settings": "mean ± SD (n = 3); for Kidney function Creatinine: Tumor 0.93 ± 0.15, Normal 0.32 ± 0.06; for Liver function Albumin: Tumor 3.56 ± 0.25, Normal 2.36 ± 0.15; for Liver function Protein: Tumor 4.93 ± 0.15, Normal 5.16 ± 0.20; for Kidney function Urea: Tumor 36.89 ± 3.43, Normal 17.30 ± 2.25", "experimental": "Solid tumors were developed in BALB/c mice (n = 3) except the control group (group I) by injecting 1 × 10^4 viable 4T1 (RRID: CVCL_0125) mice breast carcinoma cells (resuspended in 50 μl of PBS) into the inguinal fourth mammary fat pad, and the tumor was allowed to develop for 14 days ([37], [38]). Mice were randomly divided into three groups, viz., untreated tumor (group II), mice treated intraperitoneally with 1 mg//kg bodyweight of rolipram (group III), and mice receiving 5 mg/kg bodyweight of rolipram, intraperitoneally (group IV) ([39], [40]). After 14 days, the mice were sacrificed. Lung, kidney, liver, serum, and the tumors were collected for further experiments ([15]).\nThe total protein in mouse serum was measured by biuret method, which relies on formation of reddish-violet color in alkaline copper solution ([46]). The absorptivity of the colored solution was measured at 570 nm and compared with known protein standards to determine the level of total protein in the serum. The serum urea level of mouse was determined using urea kit (Coral Clinical Systems; catalog no.: 1102240075), which relies on the reaction of phenolic chromogen and hypochlorite with the ammonia formed from urea ([47]). The absorbance of the test sample (AbsT) and standard sample (AbsS) was recorded at 570 nm, and the concentration of urea was determined by the formula urea (mg/dl) = (AbsT/AbsS) × 40, according to the manufacturer’s protocol. Level of serum creatinine was measured using creatinine kit (Coral Clinical Systems; catalog no.: 1101060035). Briefly, this kit utilizes the formation of a colored complex because of reaction between alkaline picric acid solution and creatinine ([48]). The initial absorbance of the test sample (Abs1T) and standard sample (Abs1S) was measured at 520 nm after 30 s of incubation, and the final absorbance of the test sample (Abs2T) and standard sample (Abs2S) was measured exactly after 60 s. The formula, creatinine (mg/dl) = (Abs2T – Abs1T)/(Abs2S – Abs1S) × 2, was used to determine the concentration of creatinine. Activities of AST and ALT were evaluated from the serum of mice using AST assay kit (catalog no.: MAK055) and ALT assay kit (catalog no.: MAK052) from Sigma–Aldrich, following the manufacturer’s protocol. The estimation of AST activity is based on the production of glutamate by the activity of AST present in the serum samples. The absorbance of the colored product was measured at 450 nm and compared with known standard samples to determine the activity ([49]). Similarly, the ALT assay kit is based on the production of pyruvate in the presence of ALT in serum. The activity of the ALT in mouse serum was determined by measuring the absorbance of the colored product at 570 nm and comparing with the known standard samples ([50]). All the spectrophotometric analyses were carried out in Bio-Rad iMark Microplate Reader (RRID: SCR_023799)."}, "[6]": {"settings": "MDA-MB-231, IC50 dose, time course"}},
  "data": [
    {"smiles": "COc1ccc(C2CNC(=O)C2)cc1OC1CCCC1", "note": "(stereo not drawn) [rolipram, Rolipram]", "values": [
      {"measurement": "reduction of MMP9 expression", "setting": "MCF-7 cells [1]; MCF-7 (hormone-responsive cells), 48 h", "value": "fourfold"},
      {"measurement": "downregulation of expression of MMP2", "setting": "MCF-7 cells [1]; MCF-7, IC50 dose", "value": "twofold"},
      {"measurement": "levels of phospho-Akt", "setting": "MCF-7 cells [1]; MCF-7, IC50 dose", "value": "reduced"},
      {"measurement": "levels of phosphorylated-GSK3β", "setting": "MCF-7 cells [1]; MCF-7, IC50 dose", "value": "reduced levels"},
      {"measurement": "level of GLI2FL", "setting": "MCF-7 cells [1]; MCF-7, IC50 dose, time course", "value": "remained unchanged"},
      {"measurement": "level of GLI2R", "setting": "MCF-7 cells [1]; MCF-7, IC50 dose, time course", "value": "increased with time"},
      {"measurement": "level of GLI3R", "setting": "MCF-7 cells [1]; MCF-7, IC50 dose, time course", "value": "increased with time"},
      {"measurement": "levels of PKA", "setting": "MCF-7 cells [1]; MCF-7, IC50 dose, time course", "value": "increased levels"},
      {"measurement": "level of GLI1", "setting": "MCF-7 cells [1]; MCF-7, IC50 dose, time-dependent", "value": "reduced"},
      {"measurement": "elevated expression of PTEN", "setting": "MCF-7 cells [1]; MCF-7, IC50 dose, within 12 h", "value": "threefold"},
      {"measurement": "levels of vimentin", "setting": "MCF-7 cells [1]; MCF-7, after 48 h", "value": "decrease"},
      {"measurement": "levels of GLI proteins", "setting": "MCF-7 cells [1]; MCF-7, cotreatment with H89 (10 μM), 24 h, vs control and H89 only", "value": "unaltered"},
      {"measurement": "repressor forms of GLI2 and GLI3", "setting": "MCF-7 cells [1]; MCF-7, in combination with TAK-243 (0.1 μM), 24 h", "value": "failed to produce the repressor forms"},
      {"measurement": "effects on expressions of MMPs, E-cadherin, and vimentin", "setting": "MCF-7 cells [1]; MCF-7, in the presence of TAK-243", "value": "failed to exert any of the aforementioned effects"},
      {"measurement": "elevation of level of E-cadherin", "setting": "MCF-7 cells [1]; MCF-7, within 24 h", "value": "twofold"},
      {"measurement": "reduction of MMP9 expression", "setting": "MDA-MB-231 cells [2]; MDA-MB-231 (TNBC cells)", "value": "twofold"},
      {"measurement": "downregulation of expression of MMP2", "setting": "MDA-MB-231 cells [2]; MDA-MB-231, IC50 dose", "value": "twofold"},
      {"measurement": "levels of phospho-Akt", "setting": "MDA-MB-231 cells [2]; MDA-MB-231, IC50 dose", "value": "reduced"},
      {"measurement": "levels of phosphorylated-GSK3β", "setting": "MDA-MB-231 cells [2]; MDA-MB-231, IC50 dose", "value": "reduced levels"},
      {"measurement": "level of GLI2R", "setting": "MDA-MB-231 cells [2]; MDA-MB-231, IC50 dose, 48 h", "value": "decreased slightly"},
      {"measurement": "level of GLI2FL", "setting": "MDA-MB-231 cells [2]; [6]", "value": "significantly decreased with time"},
      {"measurement": "level of GLI3R", "setting": "MDA-MB-231 cells [2]; [6]", "value": "increased with time"},
      {"measurement": "levels of PKA", "setting": "MDA-MB-231 cells [2]; [6]", "value": "increased levels"},
      {"measurement": "level of GLI1", "setting": "MDA-MB-231 cells [2]; MDA-MB-231, IC50 dose, time-dependent", "value": "reduced"},
      {"measurement": "level of GLI2R", "setting": "MDA-MB-231 cells [2]; MDA-MB-231, IC50 dose, up to 24 h", "value": "increased up to 24 h"},
      {"measurement": "elevated expression of PTEN", "setting": "MDA-MB-231 cells [2]; MDA-MB-231, IC50 dose, within 12 h", "value": "threefold"},
      {"measurement": "level of E-cadherin", "setting": "MDA-MB-231 cells [2]; MDA-MB-231, after 24 h", "value": "no conclusive change"},
      {"measurement": "levels of vimentin", "setting": "MDA-MB-231 cells [2]; MDA-MB-231, after 48 h", "value": "decrease"},
      {"measurement": "levels of GLI proteins", "setting": "MDA-MB-231 cells [2]; MDA-MB-231, cotreatment with H89 (10 μM), 24 h, vs control and H89 only", "value": "unaltered"},
      {"measurement": "repressor forms of GLI2 and GLI3", "setting": "MDA-MB-231 cells [2]; MDA-MB-231, in combination with TAK-243 (0.1 μM), 24 h", "value": "failed to produce the repressor forms"},
      {"measurement": "effects on expressions of MMPs, E-cadherin, and vimentin", "setting": "MDA-MB-231 cells [2]; MDA-MB-231, in the presence of TAK-243", "value": "failed to exert any of the aforementioned effects"},
      {"measurement": "percentage of open area (wound)", "setting": "MCF-7 cells [3]; MCF-7, IC50 dose, up to 48 h, untreated 45% to 34% (24 h) and 22% (48 h)", "value": "failed to significantly reduce the percentage of open area"},
      {"measurement": "cell migration capability", "setting": "MCF-7 cells [3]; MCF-7, in the presence of TAK-243 (0.1 μM)", "value": "failed to retard the cell migration capability"},
      {"measurement": "percentage of open area (wound)", "setting": "MDA-MB-231 cells [4]; MDA-MB-231, IC50 dose, 24 and 48 h, untreated 33% to 20% and 12%", "value": "no significant change"},
      {"measurement": "cell migration capability", "setting": "MDA-MB-231 cells [4]; MDA-MB-231, in the presence of TAK-243 (0.1 μM)", "value": "failed to retard the cell migration capability"},
      {"measurement": "Kidney function Creatinine", "setting": "[5]; Tumor + 1 mg/kg", "value": "0.45 ± 0.08", "unit": "mg/dL"},
      {"measurement": "Liver function Albumin", "setting": "[5]; Tumor + 1 mg/kg", "value": "2.73 ± 0.15", "unit": "g/dL"},
      {"measurement": "Liver function Protein", "setting": "[5]; Tumor + 1 mg/kg", "value": "5.30 ± 0.10", "unit": "g/dL"},
      {"measurement": "Kidney function Urea", "setting": "[5]; Tumor + 1 mg/kg", "value": "20.39 ± 3.06", "unit": "mg/dL"},
      {"measurement": "Liver function AST", "setting": "[5]; Tumor + 1 mg/kg, Tumor 135.85 ± 11.7, Normal 85.23 ± 7.97", "value": "119.69 ± 10.1", "unit": "U/L"},
      {"measurement": "Kidney function Creatinine", "setting": "[5]; Tumor + 5 mg/kg", "value": "0.50 ± 0.05", "unit": "mg/dL"},
      {"measurement": "Liver function Albumin", "setting": "[5]; Tumor + 5 mg/kg", "value": "2.66 ± 0.05", "unit": "g/dL"},
      {"measurement": "Liver function Protein", "setting": "[5]; Tumor + 5 mg/kg", "value": "4.90 ± 0.20", "unit": "g/dL"},
      {"measurement": "Kidney function Urea", "setting": "[5]; Tumor + 5 mg/kg", "value": "22.08 ± 2.34", "unit": "mg/dL"},
      {"measurement": "Liver function ALT", "setting": "[5]; Tumor + 5 mg/kg, Tumor 55.77 ± 2.38, Normal 43.31 ± 0.88", "value": "55.69 ± 4.97", "unit": "U/L"}
    ]}
  ]
}
